How the values were obtained:
PC-3 cells [1] = assay: Potentiation assay with cancer therapeutic agents, PC-3; assay type: cell-based
Method: (§1) The cells were then incubated for 120 h followed by cell mass determination using the Sulforhodamine B assay. […] Drug interactions were analyzed by the combination index (CI) method based on the method described by Chou. CI values <0.9 indicates synergism, 0.9 to 1.1 additivity, and >1.1 antagonism. The data was expressed in the form of Fa-CI simulation plot generated using calcusyn software (Biosoft). Potentiation assays were carried out as described previously.

ES-2 cells = assay: Potentiation assay with doxorubicin, ES-2; assay type: cell-based
Method: as §1

PC-3 cells [2] = assay: Cell cycle and sub-G1 analysis (PI/FACS); assay type: cell-based; details: PC-3, 20 μM, 48 h
Method: PC-3 cells were seeded into 6-well plates at a density of 1×10^5 cells per well. […] Following ethanol fixation and treatment with RNAse (Sigma), cellular DNA was stained with propidium iodide (50 μg/mL). The samples were then acquired on a FACSArray (BD Biosciences) flow cytometer and the data analyzed using FACSDiva software.

Jurkat cells = assay: 13C-NMR metabolite analysis in Jurkat cells; assay type: cell-based; details: 20 μM
Method: Jurkat cells (5 X 106) were pre-treated in RPMI-1640 media containing either DMSO or 20
μM VER-00246608 for 1 h. The cells were then pelleted and washed in PBS containing
DMSO/compound and re-suspended in glucose-free RPMI-1640 media containing 10% FCS
cell suspension was then transferred to a 5mm NMR tube and placed into the sample probe of
a Bruker DRX600 NMR spectrometer. The probe was pre-equilibrated to 37°C and shimmed
on a matched sample. Pulses were also calibrated on the matched sample. The sample
containing the Jurkat cells was rapidly shimmed and data acquisition initiated within 15
1D 13C NMR spectra (240ppm sweep width, 64k acquired points, 64 scans) were then
acquired at 10 minute intervals up to 2 h. The glucose and lactate peaks were converted to
concentrations by referencing to a cell-free reference sample containing the same
concentration of 1,6-13C-D-Glucose (11 mM).
D, Jurkat cells (5 X 106) were pre-treated in RPMI-
suspension in glucose-free RPMI-1640 media supplemented with 2 g/L 1,6-13C-D-Glucose followed by kinetic acquisition of 13C-NMR spectra at 10 min intervals. Representative curves from duplicate treatments are shown.

PC-3 cells [3] = assay: Combination index analysis and potentiation with β-Chloro-alanine; assay type: cell-based; details: 20 μM VER-246608
Method: as §1

PDK-3 = molecular target: T1, PDK-3 (Homo sapiens, UniProt Q15120); assay: DELFIA-based enzyme functional assay (E1 substrate), PDK-3; assay type: biochemical; details: data not shown
T1 construct: PDK-3: residues 9-406; made in house; host or cells: E. coli BL21

PDK-1 = PDK-1 (Homo sapiens, UniProt Q15118); details: read-out: In vitro functional (E1/E2), IC50, PDK-1; E1/E2 as the substrate
Sequence of PDK-1 (Q15118 30-436): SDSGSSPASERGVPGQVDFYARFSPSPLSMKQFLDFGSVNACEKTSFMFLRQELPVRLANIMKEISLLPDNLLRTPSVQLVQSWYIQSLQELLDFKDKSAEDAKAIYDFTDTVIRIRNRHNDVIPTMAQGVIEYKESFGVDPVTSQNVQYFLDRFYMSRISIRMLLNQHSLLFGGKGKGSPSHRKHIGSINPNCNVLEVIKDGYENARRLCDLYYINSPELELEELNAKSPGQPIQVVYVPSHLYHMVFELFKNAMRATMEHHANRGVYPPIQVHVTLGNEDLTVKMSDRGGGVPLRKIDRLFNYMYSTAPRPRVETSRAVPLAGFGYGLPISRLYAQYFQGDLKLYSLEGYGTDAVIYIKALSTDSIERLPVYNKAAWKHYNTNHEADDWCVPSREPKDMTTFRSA
Method: DELFIA assay reagents (assay buffer, wash buffer, enhancement solution and anti-rabbit IgG-Eu-N1 secondary antibody) and plates were obtained from Perkin Elmer (MD, USA). Test compounds were subjected to a 10 point tripling dilution in DMSO, diluted in MOPS buffer (60mM MOPS pH7.2, 15 mM Magnesium acetate, 60 mM KCl) and added to the enzyme mix (10 nM PDK-1, 2 and 3 or 20 nM PDK-4, 300nM E1, 0.1 mg/mL BSA, 1 mM DTT) in 96-well V-bottom plates (Greiner). The reaction was initiated by the addition of ATP to a final concentration of 5 μM followed by a 1 h incubation at 30°C. The reaction was then stopped by the addition of STOP solution (50 mM Carbonate-Bicarbonate Buffer, pH 9.6), and then transferred to 96 well DEFLIA yellow plates. The plates were then sealed and incubated o/n at 4°C. Detection and quantification of p(Ser^293)E1α levels was then achieved through incubation with anti-p(Ser^293)E1α primary antibody (Genescript) followed by anti-rabbit secondary IgG-Eu-N1 antibody and addition of enhancement solution as per the manufacturer's instructions. The time-resolved fluorescent signal was then measured using a Victor2 plate reader (Perkin Elmer). The data was fitted by non-linear regression using XLFIT4 within a custom ABASE (IDBS) protocol in order to determine IC50 values.

T1 sequence (Q15120 9-406): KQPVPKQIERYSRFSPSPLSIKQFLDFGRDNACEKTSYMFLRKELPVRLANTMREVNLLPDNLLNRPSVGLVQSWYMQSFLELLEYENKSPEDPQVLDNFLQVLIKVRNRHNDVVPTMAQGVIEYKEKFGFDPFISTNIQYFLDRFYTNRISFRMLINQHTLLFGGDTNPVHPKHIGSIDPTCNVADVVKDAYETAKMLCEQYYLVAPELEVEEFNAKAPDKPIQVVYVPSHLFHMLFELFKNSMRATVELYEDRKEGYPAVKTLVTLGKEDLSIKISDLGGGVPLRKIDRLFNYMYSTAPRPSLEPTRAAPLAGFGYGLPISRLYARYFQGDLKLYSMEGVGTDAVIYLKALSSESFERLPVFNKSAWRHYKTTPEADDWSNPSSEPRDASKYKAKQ

Cc1cnc(Cl)nc1-c1ccc(N(Cc2ccc(CNC(=O)C(F)F)cc2)C(=O)c2ccc(O)cc2O)cc1 [VER-246608]
Potentiation of the remaining three agents (BEZ235, Cisplatin and 3-Bromopyruvate) (PC-3 cells [1]): No evidence of potentiation | Potentiation of doxorubicin (PC-3 cells [1]; PC-3 cells): 2 fold | Potentiation of doxorubicin (ES-2 cells): 3 fold | Cell cycle distribution (PC-3 cells [2]; serum-starved conditions): increased fraction of cells in the G1 phase | Apoptosis induction (sub-G1 fraction) (PC-3 cells [2]; standard and serum-depleted conditions): No evidence of apoptosis induction | Decrease in the rate of D-glucose consumption (Jurkat cells): 23% | Decrease in the rate of L-lactate production (Jurkat cells): 25% | Potentiation factor for β-Chloro-alanine (PC-3 cells [3]): 1.8 ± 0.06

C[C@@H]1CN(C(=O)[C@](C)(O)C(F)(F)F)[C@@H](C)CN1C(=O)c1ccc(C#N)cc1 [Nov3r, reference compound]
Stimulation of PDK-3 activity (PDK-3): approximately 2 fold | IC50 (PDK-1): 3 nM

From paper PMC4350332 (Oncotarget, 2014)
